According to US20260223850A1, “SUBSTITUTED PYRROLIDONE COMPOUND, PREPARATION METHOD THEREFOR, COMPOSITION AND APPLICATION THEREOF” (QINGDAO KINGAGROOT CHEMICAL COMPOUND CO., LTD., priority 2023, published 2026):

Legend:
Mythimna separata = experiment: Insecticidal activity assay, spraying method; type: in vivo; details: 3rd instar, spray, 48 h after drug application
Protocol: (§1) Spraying method: the technical material was weighed and dissolved with acetone, and the drug liquid was diluted with distilled water to different concentrations. The 2nd instar Spodoptera frugiperda test insects or the 3rd instar Mythimna separata test insects reared indoors with consistent physiological conditions were selected. Ten test insects were picked into each petri dish. Two 2 cm-long corn leaves were placed in the petri dish and sprayed using a spray tower. Each dosage was repeated 3 times, with acetone of the corresponding concentration as a control. After drug application, the insects were transferred to and reared in a condition where the temperature was 25° C. and the humidity was 60%. The results were investigated 48 h after drug application and the death number per treatment was collected, respectively. The mortality was calculated in accordance with the following equation: Mortality (%)=(Number of dead insects/Number of test insects)×100.

Spodoptera frugiperda = experiment: Insecticidal activity assay, spraying method; type: in vivo; details: 2nd instar, spray, 48 h after drug application; for Spodoptera frugiperda/% (mortality): 500 ppm
Protocol: as §1

Huaidao (rice cultivar) = experiment: Seedling stage sealing experiment for water-seeding (crop safety); type: in vivo; details: 120 g a.i./ha, 15 days, fresh weight control rate; for Huaidao (rice cultivar) plant damage level: seedling stage sealing
In short: (§2)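 Seeds broadcast on soil in nutrition bowls, covered, kept moist in a water-filled box; compound in acetone diluted with water and spray-tower applied at 120, 60, 30 and 15 g a.i./ha, triplicate. Scored after 15 days in greenhouse on a 0–9 scale of fresh-weight growth control, averaged.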

Rice sheath blight = experiment: Fungicidal activity assay, petri dish method; type: cell-based; details: 25° C., after 4 days; for Rice sheath blight/% (mycelium growth inhibition rate): 400 ppm
Protocol: (§3) Petri dish method: The drug agent was dissolved with acetone, diluted with sterile water, and set to different levels of mass concentrations according to its activity. Under aseptic operation conditions, the pre-melted sterilized medium was quantitatively added into sterilized flasks according to the test treatment. The drug solutions were quantitatively aspirated in order from low to high concentrations, added into the above-mentioned flasks, and shaken well, respectively. Next, equal amounts of the solution were poured into 3 petri dishes with a diameter of 6 cm to prepare drug-containing plates with corresponding concentrations. In the test, a treatment without drugs was set up as the blank control and each treatment was repeated 3 times. A fungus cake was cut out from the edge of the colony of the cultured pathogens using a sterile hole puncher with a diameter of 3 mm under sterile conditions. The fungus cake was inoculated into the center of a drug-containing plate using an inoculator, with the mycelia facing up, covered with a plate cover, and cultured in an incubator at 25° C. The growth of pathogen mycelia was investigated according to the fungal growth in the blank control petri dishes after 4 days. The diameters of the colonies were measured with a caliper in millimeters (mm). Each colony was vertically measured for diameters once each by the cross method and then averaged. Based on the investigation results, the mycelium growth inhibition rate of each treatment concentration on the test target fungi was calculated in accordance with Equation (1) and (2). The unit was percentage (%).
(§4) [formula] • wherein: D—Increase of colony diameter; D1—Diameter of colony; D2—Diameter of fungus cake.
(§5) [formula] • wherein: I—Mycelium growth inhibition rate; D0—Increase of colony diameter of blank control; Dt—Increase of colony diameter of drug treatment.

Tomato gray mold = experiment: Fungicidal activity assay, petri dish method; type: cell-based; details: 25° C., after 4 days
Protocol: as §3, §4, §5

Echinochloa phyllopogon = experiment: Seedling stage sealing experiment for water-seeding; type: in vivo; details: 120 g a.i./ha, 15 days, fresh weight control rate
In short: as §2

Apple ring rot = experiment: Fungicidal activity assay, petri dish method; type: cell-based; details: 25° C., after 4 days; for Apple ring rot/% (mycelium growth inhibition rate): 400 ppm
Protocol: as §3, §4, §5

Echinochloa crusgalli = experiment: Seedling stage sealing experiment for water-seeding; type: in vivo; details: 120 g a.i./ha, 15 days, fresh weight control rate
Leptochloa chinensis = experiment: as above; type: in vivo; details: 120 g a.i./ha, 15 days, fresh weight control rate
In short: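 Seeds sown in soil-filled bowls kept moist in water-filled boxes; compound in acetone diluted with water and spray-applied at 120, 60, 30 and 15 g a.i./ha, triplicate. After 15 days in greenhouse, fresh-weight growth control scored on a 0–9 scale (9 = dead, 0 = no effect), averaged.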

weeds [1] = experiment: Activity assay of compositions, post-emergence spray treatment of stems and leaves (F); type: in vivo; details: treatment F, A 30 g a.i./ha, 21 days after treatment
Protocol: (§6) The required active ingredient B was purchased from a reagent company or a technical material manufacturer or synthesized by a conventional method. The technical materials were all dissolved with acetone solvents and diluted with aqueous solution of 0.1% Tween® 80 emulsifier, which should be used immediately after dilution.
Weeds were cultivated by the pot culture method. […] Weed seeds with plump and uniform grains were selected, soaked in lukewarm water at 25° C. for 6 hours, and accelerated to germinate in a 28° C. biochemical incubator (in darkness). The weed seeds that had just germinated were evenly placed on the surface of the soil and then covered with 0.5-1 cm soil according to the sizes of seeds.
The weeds were cultured in a controllable sunlight greenhouse at 20-30° C., in natural light and with relative humidity of 57%-72%.
Each treatment was repeated 4 times. Three pots with 20 weed seeds sowed per pot were treated each time.
The drug was applied once in total in the experiment. When at 1.5-2 leaf stage, the weeds were thinned out to maintain 10 strains per pot. Thirty strains were kept in each treatment and then continued to be cultured until the 3-4 leaf stage for further treatment.
The well-cultured test materials were evenly placed on a 0.5 m^2 platform and foliage-sprayed by the 3WP-2000-type walking spray tower at a dosage of […] and a spray pressure of 0.3 MPa. After all the drug solution was sprayed, the air valve was closed. And 30 seconds later, the door of the spray tower was opened, and the nutritional bowl was taken out. Next, the air valve was opened, and the spray tube was cleaned by spraying 50 mL of water. The test materials were transferred to and routinely cultured in a greenhouse after the treatment.
(§7) A method for investigating absolute numbers was employed. The whole seedlings of the survival weeds were cut along the soil surface with a blade, and the fresh weight of the weeds was weighed by an analytical balance. For dead weeds, the fresh weight thereof was considered zero.
(§8) The investigation was performed 21 days after the treatment for once in total.
The theoretical fresh weight inhibition rate of a mixed combination of each treatment was calculated by the Gowing method (E0═X+Y−X*Y/100), then compared with the measured inhibition rate (E) to evaluate the type of the combined action of the combination of the two on weeds. The combined action was a synergistic effect when E−E0 >10%; an antagonistic effect when E−E0<−10%; an additional effect when −10%≤E−E0≤10%. An optimal ratio was determined according to factors such as actual control effects, characteristics of herbicides, balance of the formulation, etc. In the formula, X represents the fresh weight inhibition rate of the active ingredient A in a dosage of P; Y represents the fresh weight inhibition rate of the active ingredient B in a dosage of Q. The statistical results are shown in Table 6.

weeds [2] = experiment: Activity assay of compositions, soil sealing treatment (S); type: in vivo; details: treatment S, A 15 g a.i./ha
Excerpt: as §6
The test soil was quantitatively filled to ¾ of a pot, and then watered from the bottom of the pot to completely wet the soil to saturation. The seeds of the test weeds were accelerated to Just germinate, and then evenly and quantitatively broadcasted on the soil surface, covered with 0.5-1 cm soil according to the sizes of the seeds, and ready for use 72 hours after broadcasting.
Each treatment was repeated 4 times. Four pots were treated each time with 20 weed seeds per pot.
The seeds were planted in a 20 cm*30 cm square box. Water was added to 2-3 cm deep after sowing, then injected with the drug agent using a syringe, stirred evenly, and left to stand for 2 days to dry naturally. The soil was kept moist afterwards.
as §7, §8
The theoretical fresh weight inhibition rate of a mixed combination of each treatment was calculated by the Gowing method (E0═X+Y−X*Y/100), then compared with the measured inhibition rate (E) to evaluate the type of the combined action of the combination of the two on weeds. The combined action was a synergistic effect when E−E0 >10%; an antagonistic effect when E−E0<−10%; an additional effect when −10%≤E−E0≤10%. An optimal ratio was determined according to factors such as actual control effects, characteristics of herbicides, balance of the formulation, etc.

Digitaria sanguinalis = experiment: Seedling stage sealing experiment for water-seeding; type: in vivo; details: 120 g a.i./ha, seedling stage sealing, 15 days, fresh weight control rate
In short: as §2

[3] = spray, seedling stage sealing for water-seeding

Cc1cc(C)cc([C@H]2CN(C)C(=O)[C@@H]2C(=O)Nc2cnn(C(=O)OC(C)(C)C)c2Cl)c1 [491′]
Mythimna separata/% (mortality) (Mythimna separata; 500 ppm): 70% | Spodoptera frugiperda/% (mortality) (Spodoptera frugiperda): 60%

C=CCn1ncc(NC(=O)[C@H]2C(=O)N(C)C[C@@H]2c2cc(C)cc(C)c2)c1Cl [270′]
Huaidao (rice cultivar) plant damage level (Huaidao (rice cultivar)): 0 | Rice sheath blight/% (mycelium growth inhibition rate) (Rice sheath blight): 61% | Tomato gray mold/% (mycelium growth inhibition rate) (Tomato gray mold; 400 ppm): 51% | Echinochloa phyllopogon activity level (growth control rate) (Echinochloa phyllopogon; seedling stage sealing): 6 (Level 6: growth control rate greater than or equal to 70% and less than 80%) | Mythimna separata/% (mortality) (Mythimna separata; 500 ppm): 75% | Spodoptera frugiperda/% (mortality) (Spodoptera frugiperda): 55%

CN1C[C@H](c2cc3ccccc3o2)[C@@H](C(=O)Nc2cnn(C)c2Cl)C1=O [356′]
Apple ring rot/% (mycelium growth inhibition rate) (Apple ring rot): 83% | Tomato gray mold/% (mycelium growth inhibition rate) (Tomato gray mold; 400 ppm): 57% | Echinochloa crusgalli activity level (growth control rate) (Echinochloa crusgalli; seedling stage sealing): 5 (Level 5: growth control rate greater than or equal to 50% and less than 70%)

Cc1cc(C)cc([C@H]2CN(C)C(=O)[C@@H]2C(=O)Nc2cnn(-c3ccccc3)c2Cl)c1 [421′]
Huaidao (rice cultivar) plant damage level (Huaidao (rice cultivar)): 0 | Echinochloa crusgalli activity level (growth control rate) (Echinochloa crusgalli; seedling stage sealing): 9 | Mythimna separata/% (mortality) (Mythimna separata; 500 ppm): 75% | Spodoptera frugiperda/% (mortality) (Spodoptera frugiperda): 65%

Cc1ccc([C@H]2CN(C)C(=O)[C@@H]2C(=O)Nc2cnn(C)c2Cl)o1 [522′]
Mythimna separata/% (mortality) (Mythimna separata; 500 ppm): 70% | Spodoptera frugiperda/% (mortality) (Spodoptera frugiperda): 60%

C#CCn1ncc(NC(=O)[C@H]2C(=O)N(C)C[C@@H]2c2cc(C)cc(C)c2)c1Cl [420′]
Huaidao (rice cultivar) plant damage level (Huaidao (rice cultivar)): 0 | Echinochloa phyllopogon activity level (growth control rate) (Echinochloa phyllopogon; seedling stage sealing): 9 | Echinochloa crusgalli activity level (growth control rate) (Echinochloa crusgalli; seedling stage sealing): 9 | Mythimna separata/% (mortality) (Mythimna separata; 500 ppm): 90% | Spodoptera frugiperda/% (mortality) (Spodoptera frugiperda): 75%

CCn1ncc(NC(=O)[C@H]2C(=O)N(C)C[C@@H]2c2cc(C)cc(C)c2)c1Cl [418′]
Tomato gray mold/% (mycelium growth inhibition rate) (Tomato gray mold; 500 ppm): 96% | Echinochloa phyllopogon activity level (growth control rate) (Echinochloa phyllopogon; seedling stage sealing): 9 | Echinochloa crusgalli activity level (growth control rate) (Echinochloa crusgalli; seedling stage sealing): 9

Cc1cc([C@H]2CN(C)C(=O)[C@@H]2C(=O)Nc2cnn(C)c2Cl)nn1C(F)F [340′]
mortality at 500 ppm (Mythimna separata; Mythimna separata, 500 ppm): 100% | mortality at 500 ppm (Spodoptera frugiperda; Spodoptera frugiperda): 87%

Cc1cc(C)cc([C@H]2CN(C)C(=O)[C@@H]2C(=O)Nc2cnn(C)c2Cl)c1 [117′]
Leptochloa chinensis activity level (growth control rate) (Leptochloa chinensis): 9 | inhibition at 400 ppm (Rice sheath blight; 96 h, read-out: Rice sheath blight/% (mycelium growth inhibition rate)): 66% | inhibition at 400 ppm (Apple ring rot; 96 h, read-out: Apple ring rot/% (mycelium growth inhibition rate)): 55% | Control effect of A applied alone in a corresponding dose (%) (weeds [1]; Alisma plantago-aquatica): 24.8% | Control effect of A applied alone in a corresponding dose (%) (weeds [1]; Paspalum distichum): 42.6% | Echinochloa phyllopogon activity level (growth control rate) (Echinochloa phyllopogon; seedling stage sealing): 7 (Level 7: growth control rate greater than or equal to 80% and less than 90%) | Echinochloa crusgalli activity level (growth control rate) (Echinochloa crusgalli; seedling stage sealing): 9 | Control effect of A applied alone in a corresponding dose (%) (weeds [2]; Alisma plantago-aquatica, 21 days after treatment): 29.6% | Control effect of A applied alone in a corresponding dose (%) (weeds [2]; Paspalum distichum, 21 days after treatment): 45.7% | Control effect of A applied alone in a corresponding dose (%) (weeds [2]; Rotala indica, fresh weight inhibition 21 days after treatment): 37.6%

Cc1cc(C)cc([C@H]2CN(C)C(=O)[C@@H]2C(=O)Nc2cnn(C)c2C=O)c1 [500′]
Mythimna separata/% (mortality) (Mythimna separata; 500 ppm): 70% | Spodoptera frugiperda/% (mortality) (Spodoptera frugiperda): 60%

Cc1cc(C)cc([C@H]2CN(C)C(=O)[C@@H]2C(=O)Nc2cnn(C)c2C2CC2)c1 [277′]
Leptochloa chinensis activity level (growth control rate) (Leptochloa chinensis): 9 | Digitaria sanguinalis activity level (growth control rate) (Digitaria sanguinalis): 6 (Level 6: growth control rate greater than or equal to 70% and less than 80%) | Echinochloa crusgalli activity level (growth control rate) (Echinochloa crusgalli; seedling stage sealing): 9 | Mythimna separata/% (mortality) (Mythimna separata; 100 ppm): 95%

Cc1cc(Cl)cc([C@H]2CN(C)C(=O)[C@@H]2C(=O)Nc2cnn(C)c2Cl)c1 [504′]
Huaidao (rice cultivar) plant damage level (growth control rate) (Huaidao (rice cultivar); [3]): 0 | Rice sheath blight/% (mycelium growth inhibition rate) (Rice sheath blight): 83% | Apple ring rot/% (mycelium growth inhibition rate) (Apple ring rot): 80% | Echinochloa phyllopogon activity level (growth control rate) (Echinochloa phyllopogon; [3]): 9 | Echinochloa crusgalli activity level (growth control rate) (Echinochloa crusgalli; [3]): 9
